Our source for the fraction unbound, IC50 and solubility values is patent publication US20230391781A1, “MALT1 MODULATORS AND USES THEREOF” (Rheos Medicines, Inc., priority 2020, published 2023).

≈ marks a conversion by molar mass, not a printed value. Some results are limits rather than exact numbers.

A short description of data set [1]: High Throughput Dialysis (HTD) Human Plasma Protein Binding Assay. To be noted: pooled human plasma, pH 7.4, equilibrium dialysis, 37° C., read-out: Human PPB (% Unbound). The class given is in vitro ADME. The procedure:
Human plasma protein binding of various compounds of formula (I) were evaluated using the equilibrium dialysis method described herein.
The dialysis membrane strips (HTD % a/b, catalog number 1101, HTDialysis LLC, Gales Ferry, CT, USA) were soaked in ultra-pure water at room temperature for approximately 1 hour. Each membrane strip containing 2 membranes was separated and soaked in 20:80 ethanol/water (v/v) for approximately 20 minutes, after which they were ready for use or were stored in the solution at 2-8° C. for up to a month. Prior to the experiment, the membrane was rinsed three times and soaked for 20 minutes in ultra-pure water.
On the day of experiment, the human plasma (BiolVT, catalog number […], sodium heparin or EDTA-K2 anticoagulant, multiple individuals pooled) was thawed by running under cold tap water and centrifuged at 3220 rpm for 5 minutes to remove any clots. The pH value of the resulting plasma was confirmed to be 7.0-8.0.
The test compounds and warfarin control (Stru Chem, catalog number SC-16139) were dissolved in dimethyl sulfoxide (DMSO) to obtain 10 mM stock solutions. DMSO working solutions were prepared at 400 μM. To prepare the loading matrix, the compound working solutions (5 μL) were added in a 1:200 ratio to blank human plasma (995 μL) and mixed thoroughly.
The time zero (T0) samples to be used for recovery determination were prepared as follows: 50 μL aliquots of loading matrix were transferred in triplicate to the sample collection plate. The samples were immediately matched with opposite blank buffer (basic solution (14.2 g/L Na2HPO4 and 8.77 g/L NaCl in deionized water) titrated with acidic solution (15.6 g/L NaH2PO4·2H2O and 8.77 g/L NaCl in deionized water) to pH 7.4±0.1) to obtain a final volume of 100 μL of 1:1 matrix/dialysis buffer (v/v) in each well. 500 μL stop solution (200 ng/mL tolbutamide and 200 ng/mL labetalol in acetonitrile) were added to these TO samples. They were then stored at 2-8° C. for further processing along with other post-dialysis samples.
To load the dialysis device (96-well equilibrium dialysis plate, model 96b, catalog number 1006. HTDialysis LLC, Gales Ferry, CT, USA), an aliquot of 150 μL of the loading matrix was transferred to the donor side of each dialysis well in triplicate, and 150 μL of the dialysis buffer was loaded to the receiver side of the well. The dialysis plate was placed in a humidified incubator at 37° C. with 5% CO2 on a shaking platform that rotated slowly (about 100 rpm) for 4 hours.
At the end of the dialysis, aliquots of 50 μL of the samples were taken from both the buffer side and the matrix side of the dialysis device. These samples were transferred into new 96-well plates (polypropylene, 2.2 mL/well, catalog number DWP-22-96-SQ-U-C-L. Apricot). Each sample was mixed with an equal volume of opposite blank matrix (buffer or matrix) to reach a final volume of 100 μL of 1:1 matrix/dialysis buffer (v/v) in each well. All samples were further processed by adding 500 μL of stop solution containing internal standards. The mixture was vortexed and centrifuged at 4000 rpm for about 20 minutes. An aliquot of 100 μL of supernatant of all the samples was then removed for LC-MS/MS analysis. Test compound concentrations in matrix and buffer samples were expressed as peak area ratios (PAR) of analyte/internal standard (no standard curve).
The single blank samples were prepared by transferring 50 μL of blank matrix to a 96 well plate (polypropylene. 2.2 mL/well, catalog number DWP-22-96-SQ-U-C-L, Apricot) and adding 50 μL of blank PBS buffer to each well. The blank plasma must match the species of plasma used in the plasma side of the well. Then the matrix-matched samples were further processed by adding 500 μL of stop solution containing internal standards, following the same sample processing method as the dialysis samples. […]
In general terms: In equilibrium dialysis only unbound substance equilibrates across the membrane.

For data set [2], the target named is full length MALT1 (Homo sapiens (Human), UniProt Q9UDY8). Nature of the data set: MALT1 Biochemical Assay. As to conditions: 15 nM enzyme, 30 μM peptide substrate Ac-Leu-Arg-Ser-Arg-Rh110-dPro, 30 min pre-incubation, 60 min reaction; mean value if tested more than once. In outline: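 Full-length human MALT1 was pre-incubated with compound for 30 min, then cleaved a fluorogenic peptide for 60 min in 50 mM Hepes pH 7.5 with 0.8 M sodium citrate and 1 mM DTT. The reaction was quenched with 10 mM iodoacetate and fluorescence was read at 485/520 nm. IC50 came from four-parameter logistic fits of percent inhibition.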
full length MALT1, sequence (Q9UDY8 whole entry): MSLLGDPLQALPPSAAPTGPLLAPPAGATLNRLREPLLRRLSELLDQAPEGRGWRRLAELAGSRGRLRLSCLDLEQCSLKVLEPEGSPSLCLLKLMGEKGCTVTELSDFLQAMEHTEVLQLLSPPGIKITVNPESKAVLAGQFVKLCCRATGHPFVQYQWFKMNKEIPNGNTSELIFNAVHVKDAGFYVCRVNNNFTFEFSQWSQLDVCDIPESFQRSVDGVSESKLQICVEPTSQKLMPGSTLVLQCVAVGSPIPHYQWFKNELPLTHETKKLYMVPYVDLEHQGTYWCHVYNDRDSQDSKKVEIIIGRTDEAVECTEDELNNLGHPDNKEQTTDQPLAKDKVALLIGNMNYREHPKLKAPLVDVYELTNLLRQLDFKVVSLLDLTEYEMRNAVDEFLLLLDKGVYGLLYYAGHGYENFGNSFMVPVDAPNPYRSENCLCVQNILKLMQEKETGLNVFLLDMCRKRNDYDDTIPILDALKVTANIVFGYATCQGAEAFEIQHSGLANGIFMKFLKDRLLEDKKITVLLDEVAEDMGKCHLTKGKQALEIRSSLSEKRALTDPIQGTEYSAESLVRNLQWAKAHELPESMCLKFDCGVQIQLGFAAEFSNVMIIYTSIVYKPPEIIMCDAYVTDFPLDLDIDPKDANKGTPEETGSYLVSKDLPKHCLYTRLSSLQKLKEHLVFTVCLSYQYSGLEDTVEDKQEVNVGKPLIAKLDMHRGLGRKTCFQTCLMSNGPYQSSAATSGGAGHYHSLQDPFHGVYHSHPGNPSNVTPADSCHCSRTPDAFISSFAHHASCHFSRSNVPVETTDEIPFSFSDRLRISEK

Data set [3] has as its system IL-2 in Jurkat (ATCC, clone E6.1) cells stimulated with anti-CD3/28/2. Nature of the data set: Jurkat IL-2 Assay. The class given is cell-based. As to conditions: Homo sapiens; IL-2 inhibition, Jurkat cells, 30 min compound then anti-CD3/28/2 stimulation for 24 hours; mean value if tested more than once; read-out: IC50. In outline:
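Jurkat E6.1 T cells in RPMI/10% FBS (below passage 25) were preincubated with a compound dose-response for 30 min, then stimulated with soluble anti-CD3/28/2 for 24 h. IL-2 in the supernatant was measured by MSD immunoassay and viability by CellTiter-Glo luminescence. IC50 came from a 4-parameter fit, reported as ranges, with the mean used where tested repeatedly.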

Data set [4] can be described thus: Thermodynamic Solubility (Ts) Assay in Fasted State Simulated Intestinal Fluid (FaSSIF). To be noted: thermodynamic from solid, FaSSIF pH 6.5, shake flask, 25° C., HPLC-UV. The class given is physicochemical. The procedure: The solubilities of various compounds of formula (I) were determined using a thermodynamic solubility assay. The thermodynamic solubility assay employed the shake flask method followed by HPLC-UV analysis. The following stepwise procedure was followed:
Samples of no less than 2.0 mg were weighed into the lower chambers of Whatman mini-uniprep vials (catalog number UN203NPUORG) and 450 μL of FaSSIF media (0.056% (w/v) lecithin, 0.161% (w/v) sodium taurocholate, 0.39% (w/v) monobasic potassium phosphate, 0.77% (w/v) potassium chloride, deionized H2O, pH 6.5) was added into each vial.
After the buffer was added, the filter pistons of the mini-uniprep vials were placed to the position of the liquid level to ensure the full contact of buffer and compound with the filter during the incubation.
The samples were then vortexed for 2 minutes, after which they were incubated at 25° C. with shaking (880 rpm) for 24 hours.
The samples were then centrifuged at 4000 rpm (20° C.) for 10 min.
The miniunipreps were then compressed to prepare filtrates, and the test concentration of the compound in the filtrate was determined using HPLC-UV (Waters XBridge C18, 4.6*100 mm column; mobile phase A: 0.1% TFA in H2O; mobile phase B: 0.1% TFA in acetonitrile). At least 5 UV standard solutions (e.g. amiodarone hydrochloride, carbamazepine, dexamethasone) were injected into the HPLC from low to high concentration subsequently followed by testing of the thermodynamic solubility supernatants in duplicate. The solubilities of the tested compounds are given in μg/mL.

Broadly, the IC50 is the concentration that inhibits the measured activity by half. By solubility is commonly meant the dissolved amount per volume that the medium holds. For the compound `CO[C@@H](C)c1c(Nc2ccc([C@H](N(C)C(=O)C3CCN(C(C)=O)CC3)C(F)(F)F)cc2)cnc2nc(Cl)nn12` [Compound 3.1, 1-acetyl-N—((S)-1-(4-((2-chloro-7-((S)-1-methoxyethyl)-[1,2,4]triazolo[1,5-a]pyrimidin-6-yl)amino)phenyl)-2,2,2-trifluoroethyl)-N-methylpiperidine-4-carboxamide], the fraction unbound at 4 h, 2 µM in data set [1] is > 0.2. The IC50 in data set [2] is < 0.1 µM; in data set [3], 0.1 to 1 µM. This compound showed a solubility at 24 h in data set [4] of 0.25 to 1.75 mg/mL (≈ 440 to 3080 µM).
The corresponding values for `CO[C@@H](C)c1c(Nc2ccc([C@H](N(C)C(=O)C3CCN(S(C)(=O)=O)CC3)C(F)(F)F)cc2)cnc2nc(Cl)nn12` [Compound 3.4, N-[(1S)-1-[4-({2-chloro-7-[(1S)-1-methoxyethyl]-[1,2,4]triazolo[1,5-a]pyrimidin-6-yl}amino)phenyl]-2,2,2-trifluoroethyl]-1-methanesulfonyl-N-methylpiperidine-4-carboxamide] are < 0.08, < 0.1 µM, 0.1 to 1 µM and < 0.25 mg/mL.
In the same order, the values of `CO[C@@H](C)c1c(Nc2ccc([C@H](N(C)C(=O)C3CCN(C(=O)C4CC4)CC3)C(F)(F)F)cc2)cnc2nc(Cl)nn12` [Compound 4.1, N—((S)-1-(4-((2-chloro-7-((S)-1-methoxyethyl)-[1,2,4]triazolo[1,5-a]pyrimidin-6-yl)amino)phenyl)-2,2,2-trifluoroethyl)-1-(cyclopropanecarbonyl)-N-methylpiperidine-4-carboxamide] are 0.08 to 0.2, < 0.1 µM, 0.1 to 1 µM and < 0.25 mg/mL.
In the case of `CO[C@@H](C)c1c(Nc2ccc([C@H](N(C)C(=O)C3CCN(C)CC3)C(F)(F)F)cc2)cnc2nc(Cl)nn12` [Compound 5.1, N—((S)-1-(4-((2-chloro-7-((S)-1-methoxyethyl)-[1,2,4]triazolo[1,5-a]pyrimidin-6-yl)amino)phenyl)-2,2,2-trifluoroethyl)-N,1-dimethylpiperidine-4-carboxamide], the fraction unbound at 4 h, 2 µM in data set [1] was > 0.2. Further, the IC50 in data set [2] and in data set [3] was 0.1 to 1 µM in each case. Further, in data set [4], the solubility at 24 h is > 1.75 mg/mL.
On to `CO[C@@H](C)c1c(Nc2ccc([C@H](N(C)C(=O)[C@H]3CC[C@H](C(=O)O)CC3)C(F)(F)F)cc2)cnc2nc(Cl)nn12` [Compound 7.1, (1S,4r)-4-(((S)-1-(4-((2-chloro-7-((S)-1-methoxyethyl)-[1,2,4]triazolo[1,5-a]pyrimidin-6-yl)amino)phenyl)-2,2,2-trifluoroethyl)(methyl)carbamoyl)cyclohexane-1-carboxylic acid], for which the fraction unbound at 4 h, 2 µM in data set [1] lay in the range of 0.08 to 0.2. Further, the values for the IC50 in data set [2] and in data set [3] were 0.1 to 1 µM and > 1 µM, respectively. In addition, the solubility at 24 h in data set [4] is > 1.75 mg/mL.
The corresponding values for `CNC(=O)[C@H]1CC[C@H](C(=O)N(C)[C@@H](c2ccc(Nc3cnc4nc(Cl)nn4c3[C@H](C)OC)cc2)C(F)(F)F)CC1` [Compound 8.2, (1r,4S)—N1-((S)-1-(4-((2-chloro-7-((S)-1-methoxyethyl)-[1,2,4]triazolo[1,5-a]pyrimidin-6-yl)amino)phenyl)-2,2,2-trifluoroethyl)-N1,N4-dimethylcyclohexane-1,4-dicarboxamide] are 0.08 to 0.2, 0.1 to 1 µM, 0.1 to 1 µM and 0.25 to 1.75 mg/mL (≈ 430 to 3010 µM).
The corresponding values for `CO[C@@H](C)c1c(Nc2ccc([C@H](N(C)C(=O)[C@H]3CC[C@H](C(=O)N(C)C)CC3)C(F)(F)F)cc2)cnc2nc(Cl)nn12` [Compound 8.3, (1r,4S)—N1-((S)-1-(4-((2-chloro-7-((S)-1-methoxyethyl)-[1,2,4]triazolo[1,5-a]pyrimidin-6-yl)amino)phenyl)-2,2,2-trifluoroethyl)-N1,N4,N4-trimethylcyclohexane-1,4-dicarboxamide] are 0.08 to 0.2, 0.1 to 1 µM, 0.1 to 1 µM and 0.25 to 1.75 mg/mL (≈ 419 to 2940 µM).
In the same order, the values of `CO[C@@H](C)c1c(Nc2ccc([C@H](N(C)C(=O)[C@H]3C[C@H](c4nnn[nH]4)C3)C(F)(F)F)cc2)cnc2nc(Cl)nn12` [Compound 9.1, (1r,3S)—N—((S)-1-(4-((2-chloro-7-((S)-1-methoxyethyl)-[1,2,4]triazolo[1,5-a]pyrimidin-6-yl)amino)phenyl)-2,2,2-trifluoroethyl)-N-methyl-3-(1H-tetrazol-5-yl)cyclobutane-1-carboxamide] are < 0.08, < 0.1 µM, > 1 µM and > 1.75 mg/mL.
For the compound `CO[C@H](C)c1c(Nc2ccc([C@H](N(C)C(=O)C3CCN(C(C)=O)CC3)C(F)(F)F)cc2)cnc2nc(Cl)nn12` [Compound 11.1, 1-acetyl-N—((S)-1-(4-((2-chloro-7-((R)-1-methoxyethyl)-[1,2,4]triazolo[1,5-a]pyrimidin-6-yl)amino)phenyl)-2,2,2-trifluoroethyl)-N-methylpiperidine-4-carboxamide], the fraction unbound at 4 h, 2 µM in data set [1] fell in the range of 0.08 to 0.2. Moreover, the IC50 in data set [2] was < 0.1 µM; in data set [3], 0.1 to 1 µM. The solubility at 24 h in data set [4] is 0.25 to 1.75 mg/mL (≈ 440 to 3080 µM).
